Measured values as given in patent publication US4764461A, “Tellurium and selenium compounds for the induction of in vivo and in vitro production of cytokines” (priority 1987, dated 1988).

Experiments:
[1] = test system: IL-2 receptors of human mononuclear cells; assay: Induction of IL-2 receptors of human mononuclear cells, proliferation by 3HT uptake (Example 18); type: cell-based
Method: Human MNC were brought to a concentration of 10^6 cells/ml. RPMI+10% FCS. Aliquots of 0.2 ml. were placed in duplicate wells of microdishes and plates were incubated at 37 C for 24 hrs. […] Plates were further incubated for 48 hrs. and labelled with 3H thymidine 24 hrs. before harvesting.
The proliferation was measured by ^3 HT uptake as described by Gillis et al, J. Immunol. […] The results are expressed in counts per minute.

[2] = test system: human mononuclear cells; assay: Proliferation of human mononuclear cells (Example 19); type: cell-based; settings: at any concentration that was tested
Method: Human mononuclear cells were obtained by layering heparinized blood over a Ficoll/Hypaque gradient. The mononuclear cells were resuspended in enriched RPMI, rinsed three times and brought to a concentrations of 5×10^5 cells/ml encriched RPMI. […] Aliquots of 0.2 ml of each sample were placed in wells of microplates (triplicates). Microplates were incubated for 72 hours at 37° C. after which they were labelled with H^3 methyl-thymidine 1 uCi/well for an additional 24 hours. Cells were then harvested with a cell harvester.

[3] = test system: IL-2; spleen cells; assay: In vitro IL-2 secretion of mouse spleen cells, CTLD assay (Example 17); type: cell-based, Balb/c mice; settings: IL-2 activity, 24 h
Method: The compounds listed below were tested in vitro at various concentrations that ranged from 10 μg/ml cells to 1×10^-6 μg/ml of cell mixtures. Cells were obtained from spleens of male Balb/c mice 6-8 weeks of age. Spleens were pushed through a stainless steel 60 mesh strainer to separate cells.

[4] = test system: IL-2 receptors; human mononuclear cells; assay: Detection of IL-2 receptor sites with fluoresceinated antibody (Example 21); type: cell-based; settings: 1 μg/ml, 24 h; control 2%
Method: This example provides an assay to detect the presence of receptor sites for IL-2. […] The cells were washed twice with PBS and then incubated with a specific fluoresceinated antibody against IL-2 receptors as described in Uchiyama et al, J. Immunol.

## O=[Te]=O [TeO2, Tellurium dioxide]
[1]; Test A, 1 μg/ml, control 2338
  proliferation (3HT uptake), counts per minute: 1563 counts per minute
[1]; Test A, 1 × 10^-2 μg/ml, control 2338
  proliferation (3HT uptake), counts per minute: 3108 counts per minute
[1]; Test A, 1 × 10^-3 μg/ml, control 2338
  proliferation (3HT uptake), counts per minute: 2867 counts per minute
[1]; Test A, 1 × 10^-4 μg/ml, control 2338
  proliferation (3HT uptake), counts per minute: 5540 counts per minute
[1]; Test A, 1 × 10^-5 μg/ml, control 2338
  proliferation (3HT uptake), counts per minute: 3442 counts per minute
[1]; Test A, 5 × 10^-1 μg/ml, control 2338
  proliferation (3HT uptake), counts per minute: 4667 counts per minute
[1]; Test A, 5 × 10^-2 μg/ml, control 2338
  proliferation (3HT uptake), counts per minute: 2515 counts per minute
[1]; Test A, 7 × 10^-1 μg/ml, control 2338
  proliferation (3HT uptake), counts per minute: 2475 counts per minute
[1]; Test B, 1 μg/ml, control 5573
  proliferation (3HT uptake), counts per minute: 3275 counts per minute
[1]; Test B, 1 × 10^-2 μg/ml, control 5573
  proliferation (3HT uptake), counts per minute: 3077 counts per minute
[1]; Test B, 1 × 10^-3 μg/ml, control 5573
  proliferation (3HT uptake), counts per minute: 3800 counts per minute
[1]; Test B, 1 × 10^-4 μg/ml, control 5573
  proliferation (3HT uptake), counts per minute: 2925 counts per minute
[1]; Test B, 1 × 10^-5 μg/ml, control 5573
  proliferation (3HT uptake), counts per minute: 3645 counts per minute
[1]; Test B, 5 × 10^-1 μg/ml, control 5573
  proliferation (3HT uptake), counts per minute: 5405 counts per minute
[1]; Test B, 5 × 10^-2 μg/ml, control 5573
  proliferation (3HT uptake), counts per minute: 4280 counts per minute
[1]; Test B, 7 × 10^-1 μg/ml, control 5573
  proliferation (3HT uptake), counts per minute: 4302 counts per minute
[2]
  effect on proliferation: No significant effect
[3]; control 2,550
  Spleen Cells (cpm): 17,055 cpm
[3]; control 2,550 cpm
  Spleen Cells, percent increase: 508%
[4]
  cells positive for IL-2 receptors: 5%
